Reference: PubChem BioAssay AID1919007 (Molecular Pharmacology Branch, DTP, NCI, 2023)

System: A498 complex spheroids with HUVEC/MSC, growth
Experiment: Anticancer human tumor A498 cell line growth inhibition [AhR];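 also: seven day exposure starting three days after spheroid seeding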;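 as to viability, T/C: luminescence signal used as a surrogate for viable cells; luminescence viability scaled so 100% equals DMSO vehicle wells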
Conditions: for IC50: curve of first compound; for viability, T/C: stronger effect = lower value
Procedure, shortened: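 Spheroids combined tumor cells with HUVEC endothelial cells and human MSCs as stroma. AhR antagonists were paired with standard or investigational drugs, each dosed in half-log steps down from near clinical Cmax, or from 10 microM where Cmax was unknown.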

[1] = second compound 0.1 µM, first compound 0.0316 µM
[2] = second compound 0.1 µM, first compound 0.1 µM
[3] = second compound 0.1 µM, first compound 0.316 µM
[4] = second compound 0.1 µM, first compound 1 µM
[5] = second compound 0.1 µM, first compound 3.16 µM
[6] = second compound 0.1 µM, first compound 10 µM
[7] = second compound 0.316 µM, first compound 0.0316 µM
[8] = second compound 0.316 µM, first compound 0.1 µM
[9] = second compound 0.316 µM, first compound 0.316 µM
[10] = second compound 0.316 µM, first compound 1 µM
[11] = second compound 0.316 µM, first compound 3.16 µM
[12] = second compound 0.316 µM, first compound 10 µM
[13] = second compound 1 µM, first compound 0.0316 µM
[14] = second compound 1 µM, first compound 0.1 µM
[15] = second compound 1 µM, first compound 0.316 µM
[16] = second compound 1 µM, first compound 1 µM
[17] = second compound 1 µM, first compound 3.16 µM
[18] = second compound 1 µM, first compound 10 µM
[19] = second compound 3.16 µM, first compound 0.0316 µM
[20] = second compound 3.16 µM, first compound 0.1 µM
[21] = second compound 3.16 µM, first compound 0.316 µM
[22] = second compound 3.16 µM, first compound 1 µM
[23] = second compound 3.16 µM, first compound 3.16 µM
[24] = second compound 3.16 µM, first compound 10 µM
[25] = second compound 10 µM, first compound 0.0316 µM
[26] = second compound 10 µM, first compound 0.1 µM
[27] = second compound 10 µM, first compound 0.316 µM
[28] = second compound 10 µM, first compound 1 µM
[29] = second compound 10 µM, first compound 3.16 µM
[30] = second compound 10 µM, first compound 10 µM
[31] = second compound 0.1 µM, first compound 0.00316 µM
[32] = second compound 0.1 µM, first compound 0.01 µM
[33] = second compound 0.316 µM, first compound 0.00316 µM
[34] = second compound 0.316 µM, first compound 0.01 µM
[35] = second compound 1 µM, first compound 0.00316 µM
[36] = second compound 1 µM, first compound 0.01 µM
[37] = second compound 3.16 µM, first compound 0.00316 µM
[38] = second compound 3.16 µM, first compound 0.01 µM
[39] = second compound 10 µM, first compound 0.00316 µM
[40] = second compound 10 µM, first compound 0.01 µM

Compound	IC50 (second compound 0.1 µM)	IC50 (second compound 0.316 µM)	IC50 (second compound 1 µM)	IC50 (second compound 3.16 µM)	IC50 (second compound 10 µM)	viability, T/C [1]	viability, T/C [2]	viability, T/C [3]	viability, T/C [4]	viability, T/C [7]	viability, T/C [8]	viability, T/C [9]	viability, T/C [10]	viability, T/C [13]	viability, T/C [14]	viability, T/C [15]	viability, T/C [16]	viability, T/C [19]	viability, T/C [20]	viability, T/C [21]	other results
CC(C)c1c(-c2ccccc2)nc2c(C#N)c[nH]n2c1=O + CC(CO)NC(=O)c1cc(-c2ccc(Cl)cc2)nn(-c2cnn(C)c2)c1=O	> 10000 nM	> 10000 nM	> 10000 nM	> 10000 nM	> 10000 nM	94.6%	93.3%	93.3%	96.4%	91.9%	90.5%	94.6%	83.1%	85.8%	92.6%	90.7%	76.5%	81.5%	86.1%	96.2%	viability, T/C [5]: 101%; viability, T/C [6]: 103%; viability, T/C [11]: 87.3%; viability, T/C [12]: 88.5%; viability, T/C [17]: 87.1%; viability, T/C [18]: 90.7%; viability, T/C [22]: 75.3%; viability, T/C [23]: 75.9%; viability, T/C [24]: 81.5%; viability, T/C [25]: 61.8%; viability, T/C [26]: 63.3%; viability, T/C [27]: 70.5%; viability, T/C [28]: 58.9%; viability, T/C [29]: 64%; viability, T/C [30]: 72.2%
CC1COCCN1c1cc(-c2ccnn2C)c2ccnc(-c3ccn[nH]3)c2n1 (stereo not given) + CC(CO)NC(=O)c1cc(-c2ccc(Cl)cc2)nn(-c2cnn(C)c2)c1=O	77.7 nM	78.8 nM	72.7 nM	62 nM	41.7 nM	82.3%	40.5%	20.1%	13%	76%	44.1%	17.1%	14.3%	78.6%	39.1%	18.4%	15.7%	70.7%	34.9%	21.4%	viability, T/C [31]: 96.4%; viability, T/C [32]: 103%; viability, T/C [33]: 90%; viability, T/C [34]: 104%; viability, T/C [35]: 93.6%; viability, T/C [36]: 92.6%; viability, T/C [37]: 88.6%; viability, T/C [38]: 84.9%; viability, T/C [22]: 15.4%; viability, T/C [39]: 65.7%; viability, T/C [40]: 68.5%; viability, T/C [25]: 55.1%; viability, T/C [26]: 31.6%; viability, T/C [27]: 20.2%; viability, T/C [28]: 14%
COc1ccc([C@@H](O)c2cc(-c3ncnc4cc(N5CCOCC5)ccc34)c(F)cc2Cl)nn1 + CC(CO)NC(=O)c1cc(-c2ccc(Cl)cc2)nn(-c2cnn(C)c2)c1=O	346 nM	307 nM	307 nM	230 nM	74.4 nM	83.6%	79.5%	49.9%	26.2%	78%	73%	48.4%	23.9%	77.7%	73.2%	48.7%	22.8%	70.9%	67.9%	42.7%	viability, T/C [5]: 15.1%; viability, T/C [6]: 9.67%; viability, T/C [11]: 13.6%; viability, T/C [12]: 8.99%; viability, T/C [17]: 14.3%; viability, T/C [18]: 9.42%; viability, T/C [22]: 20.8%; viability, T/C [23]: 12.9%; viability, T/C [24]: 10%; viability, T/C [25]: 55.3%; viability, T/C [26]: 49.3%; viability, T/C [27]: 33.1%; viability, T/C [28]: 21.1%; viability, T/C [29]: 12.3%; viability, T/C [30]: 7.61%
COc1cccc2c1C(=O)c1c(O)c3c(c(O)c1C2=O)CC(O)(C(=O)CO)CC3OC1CC(N)C(O)C(C)O1 (stereo not given) + Cc1ccccc1N=Nc1ccc(NC(=O)c2ccnn2C)c(C)c1	290 nM	397 nM	369 nM	397 nM	400 nM	61.7%	52.4%	49.6%	23.8%	65.6%	61.6%	55.7%	25.5%	58.6%	60.4%	52.9%	25.7%	59.9%	62.6%	52.9%	viability, T/C [5]: 1.17%; viability, T/C [6]: 0.89%; viability, T/C [11]: 1.09%; viability, T/C [12]: 1.35%; viability, T/C [17]: 1.54%; viability, T/C [18]: 0.92%; viability, T/C [22]: 30.6%; viability, T/C [23]: 2.05%; viability, T/C [24]: 0.61%; viability, T/C [25]: 61.7%; viability, T/C [26]: 57.5%; viability, T/C [27]: 55.4%; viability, T/C [28]: 27%; viability, T/C [29]: 1.19%; viability, T/C [30]: 1.56%
Nc1ncn(C2CC(O)C(CO)O2)c(=O)n1 (stereo not given) + Cc1ccccc1N=Nc1ccc(NC(=O)c2ccnn2C)c(C)c1	> 1000 nM	> 1000 nM	> 1000 nM	> 1000 nM	> 1000 nM	88.8%	93.6%	86.2%	77.1%	97.4%	84%	78.5%	76.1%	84.4%	74.9%	74.6%	70.6%	85.8%	73.9%	80%	viability, T/C [31]: 88.8%; viability, T/C [32]: 91.7%; viability, T/C [33]: 97%; viability, T/C [34]: 97.5%; viability, T/C [35]: 81.2%; viability, T/C [36]: 87.3%; viability, T/C [37]: 84.9%; viability, T/C [38]: 87.2%; viability, T/C [22]: 64%; viability, T/C [39]: 90.7%; viability, T/C [40]: 86.7%; viability, T/C [25]: 76.9%; viability, T/C [26]: 85.3%; viability, T/C [27]: 74.8%; viability, T/C [28]: 68%
